Measured values taken from patent US10710978B2, “STK4 inhibitors for treatment of hematologic malignancies” (Dana-Farber Cancer Institute, Inc., priority 2015, dated 2020).
Read-outs that look alike come from different tables or passages of the source.

Experiments:
Assay in all cases: KiNativ assay
Format in all cases: binding
Settings in all cases: H929 live cell
[1] = test system: AurA, AurB, AurC
Description: (§1) Biochemical IC50s of the compounds of the present disclosure against various kinases were measured in a KiNativ assay. Compounds were screened in duplicate at 10 μM in H929 live cell. IC50 was measured via Mass spectroscopy (MS).

[2] = target: CDK2 (Homo sapiens (Human), UniProt P24941)
Description: as §1

[3] = target: CK1g2 (Homo sapiens (Human), UniProt P78368)
Description: as §1

[4] = target: CSK (Homo sapiens (Human), UniProt P41240)
Description: as §1

[5] = target: CaMK1d (Homo sapiens (Human), UniProt Q8IU85)
Description: as §1

[6] = target: EphB2 (Homo sapiens (Human), UniProt P29323)
Description: as §1

[7] = target: GSK3B (Homo sapiens (Human), UniProt P49841)
Description: as §1

[8] = target: IKKb (Homo sapiens (Human), UniProt O14920)
Sequence of IKKb (O14920 whole entry): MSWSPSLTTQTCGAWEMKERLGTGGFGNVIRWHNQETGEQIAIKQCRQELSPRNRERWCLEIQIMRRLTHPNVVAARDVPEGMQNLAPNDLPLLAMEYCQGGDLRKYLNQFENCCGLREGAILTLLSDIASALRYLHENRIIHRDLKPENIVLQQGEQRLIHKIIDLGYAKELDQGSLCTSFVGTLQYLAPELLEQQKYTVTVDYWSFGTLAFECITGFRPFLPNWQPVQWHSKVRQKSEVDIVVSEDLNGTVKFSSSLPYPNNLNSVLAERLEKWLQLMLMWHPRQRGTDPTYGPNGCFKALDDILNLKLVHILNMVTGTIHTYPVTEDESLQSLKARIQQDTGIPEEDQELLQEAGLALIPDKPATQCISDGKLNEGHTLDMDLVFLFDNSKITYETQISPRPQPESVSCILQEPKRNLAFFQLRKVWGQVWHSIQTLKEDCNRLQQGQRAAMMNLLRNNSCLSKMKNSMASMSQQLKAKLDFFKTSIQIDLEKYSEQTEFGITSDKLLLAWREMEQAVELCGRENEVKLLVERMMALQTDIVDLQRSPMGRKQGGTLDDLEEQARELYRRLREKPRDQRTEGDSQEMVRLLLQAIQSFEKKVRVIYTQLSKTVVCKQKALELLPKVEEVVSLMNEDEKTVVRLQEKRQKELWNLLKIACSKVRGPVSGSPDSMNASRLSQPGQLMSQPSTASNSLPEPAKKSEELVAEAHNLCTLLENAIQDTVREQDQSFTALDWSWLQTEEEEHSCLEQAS
Description: as §1

[9] = test system: IKKe, TBK1
Description: as §1

[10] = target: IRE1 (Homo sapiens (Human), UniProt O75460)
Sequence of IRE1 (O75460 19-977): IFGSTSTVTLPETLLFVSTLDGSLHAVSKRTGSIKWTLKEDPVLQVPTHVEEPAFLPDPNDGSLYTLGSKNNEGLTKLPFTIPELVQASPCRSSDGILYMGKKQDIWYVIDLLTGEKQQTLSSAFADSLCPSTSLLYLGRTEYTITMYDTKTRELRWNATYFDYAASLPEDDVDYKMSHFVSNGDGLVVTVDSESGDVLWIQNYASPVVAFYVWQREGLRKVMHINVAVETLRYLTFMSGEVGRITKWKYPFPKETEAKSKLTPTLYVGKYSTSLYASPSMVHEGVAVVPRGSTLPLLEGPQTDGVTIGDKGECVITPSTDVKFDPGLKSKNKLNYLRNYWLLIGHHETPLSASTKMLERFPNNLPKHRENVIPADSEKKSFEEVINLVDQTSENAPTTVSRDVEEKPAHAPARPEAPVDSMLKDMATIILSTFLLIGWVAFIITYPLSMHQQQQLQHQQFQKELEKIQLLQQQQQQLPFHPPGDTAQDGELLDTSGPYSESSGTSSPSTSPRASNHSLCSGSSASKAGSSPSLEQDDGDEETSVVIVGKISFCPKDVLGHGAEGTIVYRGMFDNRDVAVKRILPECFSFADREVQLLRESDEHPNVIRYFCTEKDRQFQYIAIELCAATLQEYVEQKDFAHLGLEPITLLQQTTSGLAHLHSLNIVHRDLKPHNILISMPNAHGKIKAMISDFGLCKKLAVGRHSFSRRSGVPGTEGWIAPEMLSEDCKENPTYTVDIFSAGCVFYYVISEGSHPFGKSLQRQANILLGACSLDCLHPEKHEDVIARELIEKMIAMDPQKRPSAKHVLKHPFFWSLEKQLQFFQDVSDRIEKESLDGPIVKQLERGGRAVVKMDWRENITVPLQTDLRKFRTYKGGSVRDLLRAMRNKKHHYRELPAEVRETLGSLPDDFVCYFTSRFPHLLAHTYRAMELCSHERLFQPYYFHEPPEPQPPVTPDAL
Description: as §1

[11] = target: JAK1 domain1 (Homo sapiens (Human), UniProt P23458)
Description: as §1

[12] = target: JAK1 domain2 (Homo sapiens (Human), UniProt P23458)
Description: as §1

[13] = target: LKB1 (Homo sapiens (Human), UniProt Q15831)
Sequence of LKB1 (Q15831 whole entry): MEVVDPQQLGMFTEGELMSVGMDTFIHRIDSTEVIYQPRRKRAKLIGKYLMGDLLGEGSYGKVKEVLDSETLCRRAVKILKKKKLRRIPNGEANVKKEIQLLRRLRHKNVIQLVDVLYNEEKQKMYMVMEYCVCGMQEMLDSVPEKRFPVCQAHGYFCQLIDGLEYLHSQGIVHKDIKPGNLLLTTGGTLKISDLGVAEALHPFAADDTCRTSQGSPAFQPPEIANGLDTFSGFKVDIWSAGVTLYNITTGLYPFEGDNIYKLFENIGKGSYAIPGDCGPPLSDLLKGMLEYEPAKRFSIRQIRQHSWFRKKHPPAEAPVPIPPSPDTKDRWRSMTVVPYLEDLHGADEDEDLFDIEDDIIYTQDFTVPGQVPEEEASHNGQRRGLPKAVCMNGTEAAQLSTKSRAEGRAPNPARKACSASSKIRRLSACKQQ
Description: as §1

[14] = target: LOK (Homo sapiens (Human), UniProt O94804)
Description: as §1

[15] = test system: MAP3K2, MAP3K3
Description: as §1

[16] = target: MAP3K5 (Homo sapiens (Human), UniProt Q99683)
Sequence of MAP3K5 (Q99683 whole entry): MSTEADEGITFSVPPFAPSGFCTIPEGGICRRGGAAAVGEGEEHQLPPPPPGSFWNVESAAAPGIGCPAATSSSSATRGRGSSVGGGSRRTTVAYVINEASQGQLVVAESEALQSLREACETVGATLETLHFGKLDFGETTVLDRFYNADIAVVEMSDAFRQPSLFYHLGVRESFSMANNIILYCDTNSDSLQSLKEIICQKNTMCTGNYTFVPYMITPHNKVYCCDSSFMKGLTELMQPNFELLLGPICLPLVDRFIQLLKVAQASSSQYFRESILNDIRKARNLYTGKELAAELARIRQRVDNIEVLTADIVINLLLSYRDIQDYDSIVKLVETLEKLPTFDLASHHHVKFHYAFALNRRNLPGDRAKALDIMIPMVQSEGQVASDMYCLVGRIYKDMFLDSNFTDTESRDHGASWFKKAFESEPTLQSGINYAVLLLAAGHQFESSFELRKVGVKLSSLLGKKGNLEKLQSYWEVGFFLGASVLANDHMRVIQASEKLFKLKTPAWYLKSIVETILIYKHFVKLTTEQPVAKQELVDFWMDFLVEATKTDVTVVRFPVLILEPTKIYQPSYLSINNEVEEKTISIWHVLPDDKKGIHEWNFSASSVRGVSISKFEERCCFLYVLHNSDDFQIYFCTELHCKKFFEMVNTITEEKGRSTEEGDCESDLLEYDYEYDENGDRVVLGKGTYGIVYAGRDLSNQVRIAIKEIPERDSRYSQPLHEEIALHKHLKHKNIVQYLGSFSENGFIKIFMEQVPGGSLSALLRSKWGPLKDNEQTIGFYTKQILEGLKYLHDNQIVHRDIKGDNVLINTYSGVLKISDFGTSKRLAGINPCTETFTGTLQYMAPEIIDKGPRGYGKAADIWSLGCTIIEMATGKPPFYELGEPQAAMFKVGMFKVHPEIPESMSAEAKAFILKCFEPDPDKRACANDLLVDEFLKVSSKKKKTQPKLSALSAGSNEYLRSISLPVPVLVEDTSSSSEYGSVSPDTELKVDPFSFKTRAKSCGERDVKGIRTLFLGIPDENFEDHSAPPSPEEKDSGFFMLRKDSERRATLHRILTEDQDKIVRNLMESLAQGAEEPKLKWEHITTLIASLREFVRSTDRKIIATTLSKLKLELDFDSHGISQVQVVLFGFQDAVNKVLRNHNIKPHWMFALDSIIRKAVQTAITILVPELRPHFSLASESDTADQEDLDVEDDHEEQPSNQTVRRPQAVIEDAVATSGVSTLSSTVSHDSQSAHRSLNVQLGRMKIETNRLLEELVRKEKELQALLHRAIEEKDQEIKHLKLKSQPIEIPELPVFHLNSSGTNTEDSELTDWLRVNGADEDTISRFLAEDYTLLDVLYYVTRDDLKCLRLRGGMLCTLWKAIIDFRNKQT
Description: as §1

[17] = test system: MST4, YSK1
Description: as §1

[18] = target: NDR1 (Homo sapiens (Human), UniProt Q15208)
Description: as §1

[19] = target: NDR2 (Homo sapiens (Human), UniProt Q9Y2H1)
Description: as §1

[20] = target: NEK1 (Homo sapiens (Human), UniProt Q96PY6)
Description: as §1

[21] = target: NEK3 (Homo sapiens (Human), UniProt P51956)
Description: as §1

[22] = target: NEK4 (Homo sapiens (Human), UniProt P51957)
Description: as §1

[23] = target: NuaK1 (Homo sapiens (Human), UniProt O60285)
Sequence of NuaK1 (O60285 whole entry): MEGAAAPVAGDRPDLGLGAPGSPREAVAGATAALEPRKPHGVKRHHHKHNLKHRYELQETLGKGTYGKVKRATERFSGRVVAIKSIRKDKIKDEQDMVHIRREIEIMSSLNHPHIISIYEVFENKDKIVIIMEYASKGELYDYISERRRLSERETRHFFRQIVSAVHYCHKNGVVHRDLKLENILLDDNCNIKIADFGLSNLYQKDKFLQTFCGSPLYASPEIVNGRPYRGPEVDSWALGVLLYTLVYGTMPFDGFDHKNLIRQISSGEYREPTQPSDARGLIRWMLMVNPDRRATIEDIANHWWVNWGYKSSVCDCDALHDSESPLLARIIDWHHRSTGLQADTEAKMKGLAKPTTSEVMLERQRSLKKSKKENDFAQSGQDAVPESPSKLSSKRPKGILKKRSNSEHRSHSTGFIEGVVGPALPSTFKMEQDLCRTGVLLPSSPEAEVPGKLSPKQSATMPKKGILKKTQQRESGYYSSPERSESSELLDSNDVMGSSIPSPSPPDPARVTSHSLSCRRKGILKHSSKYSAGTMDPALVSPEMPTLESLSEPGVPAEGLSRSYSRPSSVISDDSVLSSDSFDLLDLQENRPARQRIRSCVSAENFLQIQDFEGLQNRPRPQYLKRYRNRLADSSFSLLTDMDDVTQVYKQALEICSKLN
Description: as §1

[24] = target: PHKg2 (Homo sapiens (Human), UniProt P15735)
Description: as §1

[25] = target: PIK3C3 (Homo sapiens (Human), UniProt Q8NEB9)
Description: as §1

[26] = target: PIP4K2A (Homo sapiens (Human), UniProt P48426)
Description: as §1

[27] = target: PKD3 (Homo sapiens (Human), UniProt O94806)
Description: as §1

[28] = target: RSK2 domain1 (Homo sapiens (Human), UniProt P51812)
Description: as §1

[29] = target: RSK2 domain2 (Homo sapiens (Human), UniProt P51812)
Description: as §1

[30] = target: SNRK (Homo sapiens (Human), UniProt Q9NRH2)
Sequence of SNRK (Q9NRH2 whole entry): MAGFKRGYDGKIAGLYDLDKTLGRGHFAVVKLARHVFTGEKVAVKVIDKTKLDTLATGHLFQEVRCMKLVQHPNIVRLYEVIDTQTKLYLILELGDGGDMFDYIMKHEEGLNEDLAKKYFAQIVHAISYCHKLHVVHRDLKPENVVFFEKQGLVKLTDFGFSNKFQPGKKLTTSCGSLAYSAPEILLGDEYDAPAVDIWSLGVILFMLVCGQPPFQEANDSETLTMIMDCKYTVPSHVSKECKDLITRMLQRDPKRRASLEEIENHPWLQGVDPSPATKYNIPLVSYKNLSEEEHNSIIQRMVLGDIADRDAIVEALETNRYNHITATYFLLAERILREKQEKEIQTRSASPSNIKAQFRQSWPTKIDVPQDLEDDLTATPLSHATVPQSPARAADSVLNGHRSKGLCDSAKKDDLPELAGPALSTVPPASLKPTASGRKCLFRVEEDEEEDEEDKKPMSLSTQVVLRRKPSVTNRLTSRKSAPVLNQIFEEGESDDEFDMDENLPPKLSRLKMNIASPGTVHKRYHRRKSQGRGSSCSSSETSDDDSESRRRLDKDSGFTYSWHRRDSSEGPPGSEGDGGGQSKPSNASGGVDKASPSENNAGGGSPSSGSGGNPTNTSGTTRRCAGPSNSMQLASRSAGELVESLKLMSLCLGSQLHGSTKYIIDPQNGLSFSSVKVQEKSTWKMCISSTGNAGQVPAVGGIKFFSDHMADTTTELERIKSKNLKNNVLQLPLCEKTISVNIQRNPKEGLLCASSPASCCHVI
Description: as §1

[31] = test system: TAO1, TAO3
Description: as §1

[32] = target: ULK1 (Homo sapiens (Human), UniProt O75385)
Description: as §1

[33] = test system: ZC1/HGK, ZC2/TNIK, ZC3/MINK
Description: as §1

CN(C1CC1)S(=O)(=O)c1ccc(-c2cnc(N)c(-c3ccc4c(c3)CCNC4=O)c2)c(F)c1 [Compound I-28, 4-(6-amino-5-(1-oxo-1,2,3,4-tetrahydroisoquinolin-6-yl)pyridin-3-yl)-N-cyclopropyl-3-fluoro-N-methylbenzenesulfonamide]
% inhibition (range) ([1]; 10 μM): 0.0%
inhibition (10 μM) [1]: 21.4%
inhibition at 10 µM ([2]; read-out: % inhibition (range)): 0%
inhibition at 10 µM ([2]; read-out: inhibition (10 μM)): 27.6%
inhibition at 10 µM ([3]; read-out: % inhibition (range)): > 90%
inhibition at 10 µM ([3]; read-out: inhibition (10 μM)): > 90%
inhibition at 10 µM ([4]; read-out: % inhibition (range)): 0%
inhibition at 10 µM ([4]; read-out: inhibition (10 μM)): 3.7%
inhibition at 10 µM ([5]; read-out: % inhibition (range)): 0%
inhibition at 10 µM ([5]; read-out: inhibition (10 μM)): 15.2%
inhibition at 10 µM ([6]; read-out: % inhibition (range)): 0%
inhibition at 10 µM ([6]; read-out: inhibition (10 μM)): -2%
inhibition at 10 µM ([7]; read-out: % inhibition (range)): > 90%
inhibition at 10 µM ([7]; read-out: inhibition (10 μM)): 96.4%
inhibition at 10 µM ([8]; read-out: % inhibition (range)): 0%
inhibition at 10 µM ([8]; read-out: inhibition (10 μM)): 6.8%
% inhibition (range) ([9]; 10 μM): 0.0%
inhibition (10 μM) [9]: −14.8%
inhibition at 10 µM ([10]; read-out: % inhibition (range)): 0%
inhibition at 10 µM ([10]; read-out: inhibition (10 μM)): -34.1%
inhibition at 10 µM ([11]; read-out: % inhibition (range)): 0%
inhibition at 10 µM ([11]; read-out: inhibition (10 μM)): -38.6%
inhibition at 10 µM ([12]; read-out: % inhibition (range)): 0%
inhibition at 10 µM ([12]; read-out: inhibition (10 μM)): -33.7%
inhibition at 10 µM ([13]; read-out: % inhibition (range)): 0%
inhibition at 10 µM ([13]; read-out: inhibition (10 μM)): -0.6%
inhibition at 10 µM ([14]; read-out: % inhibition (range)): 75 to 90%
inhibition at 10 µM ([14]; read-out: inhibition (10 μM)): 85.5%
% inhibition (range) ([15]; 10 μM): 0.0%
inhibition (10 μM) [15]: 33.8%
inhibition at 10 µM ([16]; read-out: % inhibition (range)): 0%
inhibition at 10 µM ([16]; read-out: inhibition (10 μM)): -6.2%
% inhibition (range) ([17]; 10 μM): 75-90%
inhibition (10 μM) [17]: 76.7%
inhibition at 10 µM ([18]; read-out: % inhibition (range)): 0%
inhibition at 10 µM ([18]; read-out: inhibition (10 μM)): 24.6%
inhibition at 10 µM ([19]; read-out: % inhibition (range)): 0%
inhibition at 10 µM ([19]; read-out: inhibition (10 μM)): 24.2%
inhibition at 10 µM ([20]; read-out: % inhibition (range)): 0%
inhibition at 10 µM ([20]; read-out: inhibition (10 μM)): -14.1%
inhibition at 10 µM ([21]; read-out: % inhibition (range)): 0%
inhibition at 10 µM ([21]; read-out: inhibition (10 μM)): -27.2%
inhibition at 10 µM ([22]; read-out: % inhibition (range)): 0%
inhibition at 10 µM ([22]; read-out: inhibition (10 μM)): -2.8%
inhibition (10 μM) [23]: 66.7%
inhibition at 10 µM ([23]; read-out: % inhibition (range)): 50 to 75%
inhibition at 10 µM ([23]; read-out: inhibition (10 μM)): 55.6%
inhibition at 10 µM ([24]; read-out: % inhibition (range)): 0%
inhibition at 10 µM ([24]; read-out: inhibition (10 μM)): 17.3%
inhibition at 10 µM ([25]; read-out: % inhibition (range)): > 100%
inhibition at 10 µM ([25]; read-out: inhibition (10 μM)): -107%
inhibition at 10 µM ([26]; read-out: % inhibition (range)): 0%
inhibition at 10 µM ([26]; read-out: inhibition (10 μM)): 3.2%
inhibition at 10 µM ([27]; read-out: % inhibition (range)): 35 to 50%
inhibition at 10 µM ([27]; read-out: inhibition (10 μM)): 36.6%
inhibition at 10 µM ([28]; read-out: % inhibition (range)): 0%
inhibition at 10 µM ([28]; read-out: inhibition (10 μM)): 20.3%
inhibition at 10 µM ([29]; read-out: % inhibition (range)): 0%
inhibition at 10 µM ([29]; read-out: inhibition (10 μM)): -20%
inhibition at 10 µM ([30]; read-out: % inhibition (range)): 0%
inhibition at 10 µM ([30]; read-out: inhibition (10 μM)): 0%
% inhibition (range) ([31]; 10 μM): 75-90%
inhibition (10 μM) [31]: 85.5%
inhibition at 10 µM ([32]; read-out: % inhibition (range)): 0%
inhibition at 10 µM ([32]; read-out: inhibition (10 μM)): -54.6%
% inhibition (range) ([33]; 10 μM): >90%
inhibition (10 μM) [33]: 94.5%
